Values of other authors, collected in patent US20010039006A1, “Toxicity typing using embryoid bodies” (priority 1998, published 2001).
Read-outs that look alike come from different tables or passages of the source.

Experiments:
[1] = for liver toxicity: known toxicity of the marketed drug
[2] = human, in vivo
[3] = in vivo
[4] = human, in vivo; remark: listed apart in the source

SMILES: CC(=O)Nc1ccc(O)cc1 [acetominophen]
- TOXICITIES LIVER ([1]; human, in vivo): +

SMILES: c1ccc2c(c1)cc1ccc3cccc4ccc2c1c34 [benzo(a)pyrene]
- TOXICITIES CV [2]: +

SMILES: N.N.O=C([O-])C1(C(=O)[O-])CCC1.[Pt+2] [carboplatin]
- TOXICITIES GI [3]: +

SMILES: CCOC(=O)C(C)(C)Oc1ccc(Cl)cc1 [clofibrate]
- TOXICITIES LIVER ([1]; Table 1): ntc

SMILES: N=C(N)NCCCCCCC(=O)NC(O)C(=O)NCCCCNCCCN (stereo not drawn) [deoxyspergualin]
- TOXICITIES CV [2]: +

SMILES: CCC(=O)O[C@H]1[C@H](O[C@@H]2[C@@H](C)[C@H](O[C@H]3C[C@@](C)(OC)[C@@H](O)[C@H](C)O3)[C@@H](C)C(=O)O[C@H](CC)[C@@](C)(O)[C@H](O)[C@@H](C)C(=O)[C@H](C)C[C@@]2(C)O)O[C@H](C)C[C@@H]1N(C)C [erythromycin estolate]
- liver toxicity [1]: known liver toxicity

SMILES: COc1nc(C(Cl)(Cl)Cl)c(Cl)c(OC)c1Cl [penclomedine]
- TOXICITIES CNS [4]: +

SMILES: CN(CCOc1ccc(CC2SC(=O)NC2=O)cc1)c1ccccn1 (stereo not drawn) [rosiglitazone]
- TOXICITIES LIVER ([1]; Table 1): ntc

SMILES: Cc1c(C)c2c(c(C)c1O)CCC(C)(COc1ccc(CC3SC(=O)NC3=O)cc1)O2 (stereo not drawn) [troglitazone]
- liver toxicity [1]: rare but severe liver toxicity
